Measured values as given in patent publication US20260083126A1, “ANTIMICROBIAL COMPOSITIONS” (AHV International B.V., priority 2022, published 2026).
Values after ≈ are worked out from the molar mass of the structure shown. “Also recorded” adds a separate entry of the source. Read-outs that look alike come from different tables or passages of the source.

Assays:
[1] = tested on: Caco-2 cell line; assay: MTT cytotoxicity test; format: cell-based; conditions: 24 h, 7.8 μM to 1 mM, emulsified with Tween-80/DMSO
Protocol: Scope. As standard tests cytotoxicity is measured on Caco-2 and HepG2 cell lines. Cytotoxicity of mentioned cell lines was determined by measuring the amount of converted MTT (3-(4,5-dimethylthiazol-2-yl)-2,5-diphenyltetrazolium bromide) by a mitochondrial dehydrogenase after exposure of various concentrations of the antimicrobial compounds. In living cells the dehydrogenase converts the soluble MTT into water insoluble purple formazan crystals that can not pass the cell membrane. The higher the metabolic activity of the cell, the more purple crystals are formed, the lower the cytotoxicity of the antimicrobial compound. Experimental design. The Caco-2 cell line as colorectal adenocarcinoma cells and HepG2 (derived from human liver) were used for the current experiments and were obtained from the ATCC. The intestinal Caco-2 cell line was cultured in 75-cm^2 culture flasks. Minimum Essential Medium (MEM) (Catalog Number(s) 31095029, ThermoFischer Scientific), supplemented with 10% (v/v) inactivated fetal calf serum (FCS) (Gibco), 1% (v/v) nonessential amino acids (Gibco), 1% sodium pyruvate (Gibco) and penicillin (100 U/ml)/streptomycin (100 μg/ml.) was utilized as medium for the growing cells. The cells were preserved in an incubator to provide them with the optimum moisture and temperature (humidified atmosphere of 95% air and 5% CO2 at 37° C. for 72 hours). The Caco-2 cells were seeded in flat bottom 96-well plates for performing the experiments. The cells were grown on flat bottom 96-well plates to the appropriate density to run the experiments. The cells were exposed to increasing concentrations of emulsified test compound (8 concentration, ranging from 7.8 μM to 1 mM) in standard culture medium (Catalogue 31331028, ThemoFischer Scientific) for each cell line. It should be noted that all the experiments were conducted in FBS (Catalog A3840101, ThermoFischer Scientific) and antibiotic free medium. The concentration of Tween-80 and DMSO that is present in the assay to emulsify the antimicrobial compound was in the range from 0,007% to 1%. The cells were incubated for 24 h with emulsified test compound and the assay was performed based on the standard protocol. By the end of the experiment the medium (cell supernatants) was removed and the lysis buffer (0.04 M hydrochloric acid, in propan-2-ol) was added to each well to solubilize the purple formazan crystals. As the final step, the absorbance was recorded by a multi-well reader at 595 nm. […] The results from all experiments were expressed as mean #standard error of the mean (SEM) conducted in triplicate (three wells/condition) of three independent experiments. Differences between results were statistically evaluated using One-way ANOVA with Bonferroni post-hoc test.

[2] = tested on: Streptococcus uberis ATCC 27985; assay: MIC assay; format: cell-based; conditions: for MIC50 / MIC90: Streptococcus uberis, ATCC27985
Protocol: (§1) The exact weighed amount was noted and the volume of solvent to reach a 80 mM dilution calculated. Half of the volume was added first, by adding Tween 80 and let stand for 5 minutes. In a second step, the other half of the volume DMSO was added and resuspended to help the dilution process. The closed tube was inverted 5-10 times and then vortexed very thoroughly for at least 30 seconds. If after this procedure crystals were still visible, the tube was placed in a shaker at 37° C. at 150 rpm for at least 30 minutes (it is indicated if the dissolution period was longer than 2 h). […] In case of Bis(4-Chlorophenyl) thiosulfonate, a lower concentrated stock solution of 2 mM needed to be prepared. For that, the required amount of compound was weighed in and 2% v/v Tween80 and 2% v/v DMSO of the end volume of the stock solution was added to the substance. This mix was heated in a water bath set to 40° C. and occasionally shaken. When the whole amount of the substance reached dissolution, the volume was filled up with growth medium until the end volume. This 2 mM stock solution of Bis(4-Chlorophenyl) thiosulfonate was used in the MIC plate and diluted two-fold, resulting in a testing range of Bis(4-Chlorophenyl) thiosulfonate from 1 mM to 0.002 mM.
(§2) The microorganisms as indicated in Table 4 were used to inoculate a tryptic soy agar (TSA) plate and incubated overnight at 37° C. After incubation 3-5 well-isolated colonies with the same morphology were selected from the TSA plate and resuspended in 2 mL 0.9% saline solution with 3-6 glass beads and vortexed. The optical density at 600 nm (OD600) of the bacterial suspension was measured with a spectrophotometer (Evolution™ 201/220 UV-Visible Spectrophotometer, Thermo Fisher Scientific) and diluted to an OD600 of 0.0008, which resembles 10^6 CFU/mL.
(§3) The MIC assay was performed in a flat-bottom 96-microtiter plate. 50 μL of MHB-II was added into columns 2-11, and 100 μL to column 12 for sterility control. 100 μL of the 8 mM test compound solution (method 1) was added to column 1. A two-fold dilution series of the solution in MHB-II was achieved by resuspending 50 μL of the 8 mM solution from column 1 to column 2. This step was repeated until column 10. The respective concentration of Tween 80 and DMSO in column 1 was 2.5%, which is two-fold diluted throughout the plate. 50 μL of the bacterial suspension was added to column 1-11. The microtiter plates were sealed with adhesive polyethylene film for sealing microplates (Diversified Biotech) and incubated for 24 h at 37° C. After incubation the OD was measured at 600 nm with the Varioskan (Thermo Fisher Scientific). The minimal concentration which causes reduction of final OD600 of the bacterial culture by 50% (MIC50) and by 90% (MIC90) was calculated after normalization of the obtained OD values to the growth control in column 11. This assay was repeated three times in three independent experiments.
(§4) Hereafter, the stock solutions of the compounds were used in three repetitions in a minimal inhibitory concentration (MIC) assay at a 2-fold dilution range with various bacteria from the gram-positive and gram-negative group and a yeast, Candida albicans. The concentrations that show only less than 10% growth after 24 h were considered the MIC90-values, whereas the concentrations that show 50% growth after 24 h when compared to the bacterial growth control were considered the MIC50-values. Escherichia coli and Staphylococcus aureus were used as representatives for a gram-negative bacteria and gram-positive bacteria, respectively. Furthermore, the yeast C. albicans was also tested.
(§5) In an Eppendorf tube between 10-20 mg of the test compound was weighed. Hereafter, the required amount of Tween 80 was added, followed by the amount DMSO. After vigorous shaking, the dissolved and transparent dilutions were diluted 10 times with Mueller Hinton Broth (MHB) for the MIC assay. […]

[3] = tested on: Staphylococcus aureus (MRSA) LUH14616; assay: MIC assay; format: cell-based; conditions: for MIC50 / MIC90: Staphylococcus aureus, MRSA
Protocol: as §1, §2, §3, §4, §5

[4] = tested on: Lactococcus garvie Isolate 2; assay: MIC assay; format: cell-based, Lactococcus garvieae; conditions: for MIC50 / MIC90: Lactococcus
Protocol: as §1, §2, §3, §4, §5

[5] = Example 2a, n = 3, ATCC 27985, read-out: MIC90 Streptococcus uberis (+)
[6] = Example 2a, n = 3, LUH14616, read-out: MIC90 Staphylococcus aureus (+) (MRSA)
[7] = Example 2a, n = 3, Isolate 2, read-out: MIC90 Lactococcus garvie (+)
[8] = Example 2b, FIG. 1, no MIC90 detected in the tested range, read-out: Average MIC90 L. garvieae (Lg)

MIC50 Streptococcus uberis (+) ([2]; Example 2a, n = 3, ATCC 27985)	MIC90 Streptococcus uberis (+) ([2]; Example 2a, n = 3, ATCC 27985)	MIC50 Staphylococcus aureus (+) (MRSA) ([3]; Example 2a, n = 3, LUH14616)	MIC90 Staphylococcus aureus (+) (MRSA) ([3]; Example 2a, n = 3, LUH14616)	MIC50 Lactococcus garvie (+) ([4]; Example 2a, n = 3, Isolate 2)	MIC90 Lactococcus garvie (+) ([4]; Example 2a, n = 3, Isolate 2)	Compound	cytotoxic effect on Caco-2 cells (MTT) [1]	MIC50 ([2]; Example 2a, n = 3, ATCC 27985)	MIC90 [2, 5]	MIC90 ([2]; Example 2b, FIG. 1, no MIC90 detected in the tested range, read-out: Average MIC90 S. uberis (Su))	MIC50 ([3]; Example 2a, n = 3, LUH14616)	MIC90 [3, 6]	MIC90 ([3]; Example 2b, FIG. 1, no MIC90 detected in the tested range, read-out: Average MIC90 S. aureus (Sau))	MIC50 ([4]; Example 2a, n = 3, Isolate 2)	MIC90 [4, 7]	MIC90 [4, 8]
–	–	–	–	–	–	Clc1ccc(SSc2ccc(Cl)cc2)cc1 [Bis (4-chlorophenyl) disulfide, Bis(4-chlorophenyl) disulfide]	cytotoxic effects	20 µM (≈ 5.74 µg/mL)	50 µM (≈ 14.4 µg/mL)	> 1000 µM	< 8 µM	190 µM (≈ 54.6 µg/mL)	> 1000 µM	1350 µM (≈ 388 µg/mL)	> 4 mM	> 1 mM
–	–	–	–	–	–	Fc1ccc(SSc2ccc(F)cc2)cc1 [Bis (4-fluorophenyl) disulfide, Bis(4-fluorophenyl) disulfide]	cytotoxic effects	210 µM (≈ 53.4 µg/mL)	630 µM (≈ 160 µg/mL)	–	< 8 µM	2330 µM (≈ 593 µg/mL)	–	250 µM (≈ 63.6 µg/mL)	> 4 mM	> 4 mM
0.42 mM (≈ 114 µg/mL)	1.50 mM (≈ 405 µg/mL)	0.28 mM (≈ 75.7 µg/mL)	1.77 mM (≈ 478 µg/mL)	0.13 mM (≈ 35.1 µg/mL)	0.83 mM (≈ 224 µg/mL)	[O-][S+](Sc1ccc(F)cc1)c1ccc(F)cc1 (centres unmarked) [Bis (4-fluorophenyl) thiosulfinate, Bis(4-fluorophenyl) thiosulfinate]	–	–	–	–	–	–	–	–	–	–
0.67 mM	1.33 mM	<0.008 mM	1.27 mM	0.22 mM	0.83 mM	O=S(=O)(Sc1ccc(F)cc1)c1ccc(F)cc1 [Bis (4-fluorophenyl) thiosulfonate, Bis(4-fluorophenyl) thiosulfonate]	–	–	–	–	–	–	–	–	–	–
–	–	–	–	–	–	CC(C)SS(=O)(=O)C(C)C [Di-isopropyl thiosulfonate]	cytotoxic effects; also recorded: cytotoxicity is lowest	–	–	–	–	–	–	–	–	–

Compound	MIC50 Streptococcus uberis (+) ([2]; Example 2a, n = 3, ATCC 27985)	MIC90 Streptococcus uberis (+) ([2]; Example 2a, n = 3, ATCC 27985)	MIC50 Staphylococcus aureus (+) (MRSA) ([3]; Example 2a, n = 3, LUH14616)	MIC90 Staphylococcus aureus (+) (MRSA) ([3]; Example 2a, n = 3, LUH14616)	MIC50 Lactococcus garvie (+) ([4]; Example 2a, n = 3, Isolate 2)	MIC90 Lactococcus garvie (+) ([4]; Example 2a, n = 3, Isolate 2)	cytotoxic effect on Caco-2 cells (MTT) [1]	MIC50 ([2]; Example 2a, n = 3, ATCC 27985)	MIC90 [2, 5]	MIC90 ([2]; Example 2b, FIG. 1, no MIC90 detected in the tested range, read-out: Average MIC90 S. uberis (Su))	MIC50 ([3]; Example 2a, n = 3, LUH14616)	MIC90 [3, 6]	MIC90 ([3]; Example 2b, FIG. 1, no MIC90 detected in the tested range, read-out: Average MIC90 S. aureus (Sau))	MIC50 ([4]; Example 2a, n = 3, Isolate 2)	MIC90 [4, 7]	MIC90 [4, 8]
O=S(=O)(Sc1ccc(Cl)cc1)c1ccc(Cl)cc1 [Bis (4-chlorophenyl) thiosulfonate, Bis(4-chlorophenyl) thiosulfonate]	0.06 mM	0.50 mM	0.06 mM	0.75 mM	0.09 mM	0.50 mM	cytotoxic effects	–	–	–	–	–	–	–	–	–
